# Assay results published in PubChem BioAssay AID2060890 (Molecular Pharmacology Branch, DTP, NCI, 2025).
# Tested on: LG0703-F948-PDC complex spheroid viability
# Assay: Anticancer human tumor LG0703-F948-PDC patient-derived lung adenocarcinoma cell line growth inhibition [RAS]
# Conditions: for viability, T/C: stronger effect = lower value
# Method in brief: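 Agents were tested in combination matrices in half-log decrements from a top concentration at or near clinical Cmax (10 microM if undetermined). Targets were multi-cell spheroids of tumour lines plus HUVEC and MSC stromal cells.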
# 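Note: spheroids exposed to agents for 7 days.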
# 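Throughout, for viability, T/C: 100% = DMSO vehicle wells.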
smiles,measurement,setting,value
O=C(c1ccc(F)c(F)c1Nc1ccc(I)cc1F)N1CC(O)([C@@H]2CCCCN2)C1 + CCn1c(-c2cc(N3CCN(C)CC3)cnc2C(C)OC)c2c3cc(ccc31)-c1csc(n1)CC(NC(=O)C1CC1C)C(=O)N1CCCC(N1)C(=O)OCC(C)(C)C2,IC50,"curve of first compound, second compound 0.000949 µM",5.33 nM
same,IC50,"curve of first compound, second compound 0.003 µM",< 3.16 nM
same,IC50,"curve of first compound, second compound 0.00949 µM",< 3.16 nM
same,IC50,"curve of first compound, second compound 0.03 µM",< 3.16 nM
same,IC50,"curve of first compound, second compound 0.0949 µM",< 3.16 nM
same,IC50,"curve of first compound, second compound 0.3 µM",< 3.16 nM
same,"viability, T/C","second compound 0.000949 µM, first compound 0.00316 µM",59.2%
same,"viability, T/C","second compound 0.000949 µM, first compound 0.01 µM",38.7%
same,"viability, T/C","second compound 0.000949 µM, first compound 0.0316 µM",28%
same,"viability, T/C","second compound 0.000949 µM, first compound 0.1 µM",19.2%
same,"viability, T/C","second compound 0.000949 µM, first compound 0.316 µM",18.5%
same,"viability, T/C","second compound 0.000949 µM, first compound 1 µM",14.4%
same,"viability, T/C","second compound 0.003 µM, first compound 0.00316 µM",37.1%
same,"viability, T/C","second compound 0.003 µM, first compound 0.01 µM",22.3%
same,"viability, T/C","second compound 0.003 µM, first compound 0.0316 µM",19.1%
same,"viability, T/C","second compound 0.003 µM, first compound 0.1 µM",10.5%
same,"viability, T/C","second compound 0.003 µM, first compound 0.316 µM",11.4%
same,"viability, T/C","second compound 0.003 µM, first compound 1 µM",8.17%
same,"viability, T/C","second compound 0.00949 µM, first compound 0.00316 µM",17.4%
same,"viability, T/C","second compound 0.00949 µM, first compound 0.01 µM",15.4%
same,"viability, T/C","second compound 0.00949 µM, first compound 0.0316 µM",8.52%
same,"viability, T/C","second compound 0.00949 µM, first compound 0.1 µM",6.3%
same,"viability, T/C","second compound 0.00949 µM, first compound 0.316 µM",8.85%
same,"viability, T/C","second compound 0.00949 µM, first compound 1 µM",8.14%
same,"viability, T/C","second compound 0.03 µM, first compound 0.00316 µM",10.5%
same,"viability, T/C","second compound 0.03 µM, first compound 0.01 µM",8.04%
same,"viability, T/C","second compound 0.03 µM, first compound 0.0316 µM",4.84%
same,"viability, T/C","second compound 0.03 µM, first compound 0.1 µM",3%
same,"viability, T/C","second compound 0.03 µM, first compound 0.316 µM",5.82%
same,"viability, T/C","second compound 0.03 µM, first compound 1 µM",4.58%
same,"viability, T/C","second compound 0.0949 µM, first compound 0.00316 µM",7.33%
same,"viability, T/C","second compound 0.0949 µM, first compound 0.01 µM",6.13%
same,"viability, T/C","second compound 0.0949 µM, first compound 0.0316 µM",3.55%
same,"viability, T/C","second compound 0.0949 µM, first compound 0.1 µM",3.1%
same,"viability, T/C","second compound 0.0949 µM, first compound 0.316 µM",3.05%
same,"viability, T/C","second compound 0.0949 µM, first compound 1 µM",3.07%
same,"viability, T/C","second compound 0.3 µM, first compound 0.00316 µM",5.13%
same,"viability, T/C","second compound 0.3 µM, first compound 0.01 µM",3.55%
same,"viability, T/C","second compound 0.3 µM, first compound 0.0316 µM",2.8%
same,"viability, T/C","second compound 0.3 µM, first compound 0.1 µM",2.47%
same,"viability, T/C","second compound 0.3 µM, first compound 0.316 µM",2.61%
same,"viability, T/C","second compound 0.3 µM, first compound 1 µM",2.35%
CC(=O)OC12COC1CC(O)C1(C)C(=O)C(O)C3=C(C)C(OC(=O)C(O)C(NC(=O)OC(C)(C)C)c4ccccc4)CC(O)(C(OC(=O)c4ccccc4)C21)C3(C)C (centres undefined),"viability, T/C",compound 0.0316 µM,37.1% [middle of 4 runs]
same,"viability, T/C",compound 0.1 µM,33.9% [middle of 4 runs]
same,"viability, T/C",compound 0.316 µM,39.8% [middle of 4 runs]
same,"viability, T/C",compound 1 µM,39.7% [middle of 4 runs]
same,"viability, T/C",compound 3.16 µM,43.2% [middle of 4 runs]
same,"viability, T/C",compound 10 µM,44.4% [middle of 4 runs]
same,IC50,curve of compound,< 31.6 nM
